Reference: US20100029685A1 (NeuroSearch A/S, priority 2006, published 2010)

Experiments:
[1] = biological target: T1, human nicotinic acetylcholine receptor subtype α4β2 (Homo sapiens, UniProt P17787+P43681); experiment: FLIPR nAChR α4β2 positive allosteric modulator activity; format: cell-based; details: HEK-293 cells stably expressing hα4β2; for Efficacy Response relative to Nicotine (%): maximal positively modulated response relative to maximal nicotine response (100 μM); for EC50: positive modulation of response to sub-maximal nicotine (EC20-30), peak values
T1 construct: expressed in transfected cells
T1 sequence (P43681 29-627 limits assumed): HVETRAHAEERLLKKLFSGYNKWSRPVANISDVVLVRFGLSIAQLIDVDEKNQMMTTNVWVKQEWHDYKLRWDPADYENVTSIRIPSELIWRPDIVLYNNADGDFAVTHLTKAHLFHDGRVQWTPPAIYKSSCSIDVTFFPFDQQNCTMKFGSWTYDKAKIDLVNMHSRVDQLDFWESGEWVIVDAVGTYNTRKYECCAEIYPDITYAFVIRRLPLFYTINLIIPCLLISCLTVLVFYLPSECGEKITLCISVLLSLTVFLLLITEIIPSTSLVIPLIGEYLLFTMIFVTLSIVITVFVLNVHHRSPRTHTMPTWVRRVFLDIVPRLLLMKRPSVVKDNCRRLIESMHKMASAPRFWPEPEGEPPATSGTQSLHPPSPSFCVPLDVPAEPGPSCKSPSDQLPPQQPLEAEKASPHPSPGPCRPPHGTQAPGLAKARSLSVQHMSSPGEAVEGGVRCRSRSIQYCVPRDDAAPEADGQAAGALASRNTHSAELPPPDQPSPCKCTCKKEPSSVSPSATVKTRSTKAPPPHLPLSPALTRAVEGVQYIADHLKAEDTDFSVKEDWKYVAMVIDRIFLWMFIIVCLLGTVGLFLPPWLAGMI
T1 sequence (P17787 26-502): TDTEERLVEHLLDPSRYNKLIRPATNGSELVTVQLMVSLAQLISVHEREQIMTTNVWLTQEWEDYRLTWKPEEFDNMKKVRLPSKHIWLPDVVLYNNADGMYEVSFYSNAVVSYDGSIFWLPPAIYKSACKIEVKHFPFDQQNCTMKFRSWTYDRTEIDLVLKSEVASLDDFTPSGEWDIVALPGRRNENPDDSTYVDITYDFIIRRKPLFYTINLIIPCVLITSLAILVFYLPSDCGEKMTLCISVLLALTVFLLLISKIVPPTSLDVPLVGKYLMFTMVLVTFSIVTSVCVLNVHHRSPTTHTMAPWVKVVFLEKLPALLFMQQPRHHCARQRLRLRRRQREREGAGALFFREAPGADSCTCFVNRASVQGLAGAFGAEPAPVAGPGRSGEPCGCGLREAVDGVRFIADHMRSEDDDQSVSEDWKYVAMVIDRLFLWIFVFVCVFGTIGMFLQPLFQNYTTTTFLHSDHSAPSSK
Method: Characterization of hα4β2 Positive Allosteric Modulators Using FLIPR
The ability is determined relative to a maximal nicotine response (100 μM). The activity is determined as a fluorescence-based assay using a Fluorometric Imaging Plate Reader (FLIPR) as described below in more detail.
Full concentration/response curves are generated and EC50 values are calculated based on peak values. EC50 values (Effective Concentration) represent the concentration of the test substance, at which the nicotine-induced EC20-30 response is positively modulated such that the size of the response equals 50% of the maximal response. The maximal positively modulated response (efficacy) is determined relative to the reference (nicotine) response.

| melting point [°C] | Efficacy Response relative to Nicotine (%) [1] [%] | EC50 [1] [nM] | Compound |
| --- | --- | --- | --- |
| 217 to 223 |  |  | N#Cc1cccc(-c2nnc(-c3cccc(C#N)c3)s2)c1 [Compound 8.2, 3-(5-{3-Cyano-phenyl}-[1,3,4]thiadiazol-2-yl)-benzonitrile] |
|  | 153 | 980 | N#Cc1ccc(-c2nnc(-c3cccnc3)o2)s1 [Compound 7.6] |
| 165 to 168 |  |  | O=[N+]([O-])c1ccc(-c2nnc(-c3cccnc3)o2)o1 [Compound 7.2, 3-(5-{5-Nitro-furan-2-yl}-[1,3,4]oxadiazol-2-yl)-pyridine] |
|  | 133 | 520 | N#Cc1cccc(-c2nnc(-c3cccnc3)o2)c1 [Compound 7.1, 3-(5-Pyridine-3-yl-[1,3,4]oxadiazol-2-yl)-benzonitrile] |
